# Several values for one entry are separate records, joined by “and”; a condition that tells them apart may be missing. Equal values may be shown once.
# How the values were obtained:
# K. pneumoniae ATCC 29665 = test: MIC by broth microdilution; type: cell-based, Klebsiella pneumoniae; conditions: Klebsiella pneumoniae, ATCC29665, broth microdilution; read-out: MIC K. pneumoniae ATCC 29665
# Procedure, shortened: (§1)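 Exponential-phase cultures (OD600 0.5, 37 °C aerobic), diluted 100-fold in CAMHB, were added to twofold compound dilution series. Keio strains grown with 50 µg ml^−1 kanamycin. Plates incubated overnight at 37 °C, shaking at 600 r.p.m.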
# HEK293T = test: Cytotoxicity assay (MTT); type: cell-based, human; conditions: for MTT data (raw readout) / MTT data (raw reading): HEK293T; for IC50: Homo sapiens, HEK-293T, 24 h, MTT
# Description: (§2) HepG2 (ATCC HB-8065) and HEK293T (ATCC CRL-3216) cell lines were cultured at 37 °C and 7% CO2 in Dulbecco’s modified Eagle medium (Sigma-Aldrich, D6546) with GlutaMax, penicillin (100 µg ml^−1), streptomycin (100 µg ml^−1) and 10% fetal calf serum. Cells were passaged twice a week by first detaching using 0.05% trypsin in phosphate-buffered saline (PBS) and then diluting to appropriate confluence. Compound cytotoxicity was evaluated using the standard (3-(4,5-dimethylthiazol-2-yl)-2,5-diphenyltetrazolium bromide (MTT) assay protocol (MTT assay protocol for cell viability and proliferation, Merck) with slight changes. HepG2 and HEK293T cells were seeded at a density of 1.5 × 10^4 cells per well in a clear 96-well tissue culture treated plate in a final volume of 100 µl in Dulbecco’s modified Eagle medium, supplemented with fetal bovine serum (1%), GlutaMax and penicillin/streptomycin. Cells were incubated for 24 h at 37 °C, 7% CO2 to allow cells to attach to the plates. […] Incubation was done for 24 h at 37 °C, 7% CO2. After the incubation, MTT was added to each well at a final concentration of 0.40 mg ml^−1. The plates were then incubated for 2 h at 37 °C, 7% CO2. Medium was carefully removed via suction, and purple formazan crystals were resuspended in 100 µl DMSO. Absorbance was read at 570 nm using a Clariostar plate reader with MARS (V4.20). The data were then analysed with GraphPad Prism software. IC50 values were calculated using non-linear fitted curve with variable slope settings, with values adjusted for background (plotted absorbance (ABS)sample = (ABSsample – ABSbackground) / (ABSvehicle – ABSbackground)). Technical triplicates for each condition were used, along with biological duplicates.
# HepG2 = test: Cytotoxicity assay (MTT); type: cell-based, human; conditions: for IC50: Homo sapiens, HepG2, 24 h, MTT, 24 h
# Description: as §2
# E. coli W3110 = test: MIC by broth microdilution; type: cell-based, Escherichia coli; conditions: for MIC: Escherichia coli, W3110, WT, broth microdilution, read-out: MIC E. coli W3110
# Procedure, shortened: as §1
# [1] = 0.023 uM, experiment n = 1, technical triplicates
# [2] = 0.023 uM, experiment n = 2, technical triplicates
# [3] = 0.068 uM, experiment n = 1, technical triplicates
# [4] = 0.068 uM, experiment n = 2, technical triplicates
# [5] = 0.21 uM, experiment n = 1, technical triplicates
# [6] = 0.21 uM, experiment n = 2, technical triplicates
# [7] = 0.62 uM, experiment n = 1, technical triplicates
# [8] = 0.62 uM, experiment n = 2, technical triplicates
# [9] = 1.85 uM, experiment n = 1, technical triplicates
# [10] = 1.85 uM, experiment n = 2, technical triplicates
# [11] = 5.6 uM, experiment n = 1, technical triplicates
# [12] = 5.6 uM, experiment n = 2, technical triplicates
# [13] = 16.7 uM, experiment n = 1, technical triplicates
# [14] = 16.7 uM, experiment n = 2, technical triplicates
# [15] = 50 uM, experiment n = 1, technical triplicates
# [16] = HepG2, 0.023 uM, experiment n = 1, technical triplicates
# [17] = HepG2, 0.023 uM, experiment n = 2, technical triplicates
# [18] = HepG2, 0.068 uM, experiment n = 1, technical triplicates
# [19] = HepG2, 0.068 uM, experiment n = 2, technical triplicates
# [20] = HepG2, 0.21 uM, experiment n = 1, technical triplicates
# [21] = HepG2, 0.21 uM, experiment n = 2, technical triplicates
# [22] = HepG2, 0.62 uM, experiment n = 1, technical triplicates
# [23] = HepG2, 0.62 uM, experiment n = 2, technical triplicates
# [24] = HepG2, 1.85 uM, experiment n = 1, technical triplicates
# [25] = HepG2, 1.85 uM, experiment n = 2, technical triplicates
# [26] = HepG2, 5.6 uM, experiment n = 1, technical triplicates
# [27] = HepG2, 5.6 uM, experiment n = 2, technical triplicates
# [28] = HepG2, 16.7 uM, experiment n = 1, technical triplicates
# [29] = HepG2, 16.7 uM, experiment n = 2, technical triplicates
structure (smiles),measurement,setting,value
O=S(=O)(NCCNCc1ccc(-c2ccsc2)cc1)c1cccc2cnccc12 [Compound 57],MIC,K. pneumoniae ATCC 29665,12.5 µM
same,MTT data (raw readout),HEK293T; [1],0.793 and 0.726 and 0.620
same,MTT data (raw readout),HEK293T; [2],0.807 and 0.803 and 0.611
same,MTT data (raw readout),HEK293T; [3],0.732 and 0.738 and 0.650
same,MTT data (raw readout),HEK293T; [4],0.765 and 0.761 and 0.569
same,MTT data (raw readout),HEK293T; [5],0.722 and 0.771 and 0.628
same,MTT data (raw readout),HEK293T; [6],0.825 and 0.737 and 0.605
same,MTT data (raw readout),HEK293T; [7],0.689 and 0.691 and 0.563
same,MTT data (raw readout),HEK293T; [8],0.748 and 0.715 and 0.545
same,MTT data (raw readout),HEK293T; [9],0.625 and 0.610 and 0.502
same,MTT data (raw readout),HEK293T; [10],0.678 and 0.632 and 0.506
same,MTT data (raw readout),HEK293T; [11],0.490 and 0.501 and 0.402
same,MTT data (raw readout),HEK293T; [12],0.448 and 0.475 and 0.377
same,MTT data (raw readout),HEK293T; [13],0.253 and 0.231 and 0.202
same,MTT data (raw readout),HEK293T; [14],0.296 and 0.267 and 0.213
same,MTT data (raw readout),HEK293T; [15],0.051 and 0.066 and 0.048
same,MTT data (raw readout),"HEK293T; 50 uM, experiment n = 2, technical triplicates",0.078 and 0.094 and 0.056
same,IC50,HEK293T,6.6 µM
same,MTT data (raw readout),HepG2; [16],0.512 and 0.502 and 0.507
same,MTT data (raw readout),HepG2; [17],0.479 and 0.518 and 0.476
same,MTT data (raw readout),HepG2; [18],0.477 and 0.445 and 0.510
same,MTT data (raw readout),HepG2; [19],0.538 and 0.507 and 0.588
same,MTT data (raw readout),HepG2; [20],0.485 and 0.473 and 0.497
same,MTT data (raw readout),HepG2; [21],0.529 and 0.523 and 0.494
same,MTT data (raw readout),HepG2; [22],0.426 and 0.445 and 0.470
same,MTT data (raw readout),HepG2; [23],0.529 and 0.507 and 0.472
same,MTT data (raw readout),HepG2; [24],0.360 and 0.379 and 0.361
same,MTT data (raw readout),HepG2; [25],0.404 and 0.395 and 0.409
same,MTT data (raw readout),HepG2; [26],0.268 and 0.278 and 0.299
same,MTT data (raw readout),HepG2; [27],0.322 and 0.303 and 0.267
same,MTT data (raw readout),HepG2; [28],0.206 and 0.230 and 0.232
same,MTT data (raw readout),HepG2; [29],0.246 and 0.259
same,MTT data (raw readout),"HepG2; HepG2, 50 uM, experiment n = 2, technical triplicates",0.039 and 0.047 and 0.038
same,IC50,HepG2,8.2 µM
same,MIC,E. coli W3110,6.25 µM
same,antimicrobial activity,E. coli W3110; relative to parent compound,equally potent
O=S(=O)(NCCNCc1ccc(-c2ccc(Cl)cc2)cc1)c1cccc2cnccc12 [Compound 61],MIC,K. pneumoniae ATCC 29665,> 50 µM
same,MTT data (raw reading),"HEK293T; 0.023 uM, n = 1",0.895 and 1.117 and 0.888
same,MTT data (raw reading),"HEK293T; 0.023 uM, n = 2",0.606 and 0.823 and 0.767
same,MTT data (raw reading),"HEK293T; 0.068 uM, n = 1",1.228 and 1.100 and 1.289
same,MTT data (raw reading),"HEK293T; 0.068 uM, n = 2",0.594 and 0.790 and 0.797
same,MTT data (raw reading),"HEK293T; 0.21 uM, n = 1",1.193 and 1.192 and 1.600
same,MTT data (raw reading),"HEK293T; 0.21 uM, n = 2",0.478 and 0.738 and 0.728
same,MTT data (raw reading),"HEK293T; 0.62 uM, n = 1",0.992 and 0.937 and 0.903
same,MTT data (raw reading),"HEK293T; 0.62 uM, n = 2",0.540 and 0.686 and 0.703
same,MTT data (raw reading),"HEK293T; 1.85 uM, n = 1",0.640 and 0.552 and 0.507
same,MTT data (raw reading),"HEK293T; 1.85 uM, n = 2",0.345 and 0.480 and 0.465
same,MTT data (raw reading),"HEK293T; 5.6 uM, n = 1",0.114 and 0.126 and 0.094
same,MTT data (raw reading),"HEK293T; 5.6 uM, n = 2",0.048 and 0.047 and 0.040
same,MTT data (raw reading),"HEK293T; 16.7 uM, n = 1",0.021 and 0.012 and 0.016
same,IC50,HEK293T,1 µM
same,MTT data (raw reading),"HepG2; HepG2, 0.023 uM, n = 1",0.473 and 0.481 and 0.514
same,MTT data (raw reading),"HepG2; HepG2, 0.023 uM, n = 2",0.517 and 0.561 and 0.567
same,MTT data (raw reading),"HepG2; HepG2, 0.068 uM, n = 1",0.534 and 0.501 and 0.482
same,MTT data (raw reading),"HepG2; HepG2, 0.068 uM, n = 2",0.479 and 0.534 and 0.570
same,MTT data (raw reading),"HepG2; HepG2, 0.21 uM, n = 1",0.462 and 0.484 and 0.480
same,MTT data (raw reading),"HepG2; HepG2, 0.21 uM, n = 2",0.576 and 0.558 and 0.573
same,MTT data (raw reading),"HepG2; HepG2, 0.62 uM, n = 1",0.454 and 0.449
same,MTT data (raw reading),"HepG2; HepG2, 0.62 uM, n = 2",0.464 and 0.502 and 0.467
same,MTT data (raw reading),"HepG2; HepG2, 1.85 uM, n = 1",0.401 and 0.414 and 0.404
same,MTT data (raw reading),"HepG2; HepG2, 1.85 uM, n = 2",0.454 and 0.456 and 0.471
same,MTT data (raw reading),"HepG2; HepG2, 5.6 uM, n = 1",0.017 and 0.021 and 0.022
same,MTT data (raw reading),"HepG2; HepG2, 5.6 uM, n = 2",0.042 and 0.022 and 0.021
same,MTT data (raw reading),"HepG2; HepG2, 16.7 uM, n = 1",0.009 and 0.013
same,IC50,HepG2,2.8 µM
same,MIC,E. coli W3110,6.25 µM
N#Cc1ccc(-c2ccc(CNCCNS(=O)(=O)c3cccc4cnccc34)cc2)cc1 [Compound 63],MIC,K. pneumoniae ATCC 29665,12.5 µM
same,MTT data (raw readout),HEK293T; [1],0.901 and 1.153 and 1.291
same,MTT data (raw readout),HEK293T; [2],0.788 and 0.714 and 0.753
same,MTT data (raw readout),HEK293T; [3],1.230 and 1.606
same,MTT data (raw readout),HEK293T; [4],0.880 and 0.788
same,MTT data (raw readout),HEK293T; [5],1.126 and 1.263 and 1.301
same,MTT data (raw readout),HEK293T; [6],0.786 and 0.824 and 0.781
same,MTT data (raw readout),HEK293T; [7],1.516 and 1.537 and 1.418
same,MTT data (raw readout),HEK293T; [8],0.850 and 0.846 and 0.825
same,MTT data (raw readout),HEK293T; [9],1.143 and 1.250 and 1.118
same,MTT data (raw readout),HEK293T; [10],0.775 and 0.761 and 0.773
same,MTT data (raw readout),HEK293T; [11],1.050 and 1.130 and 1.181
same,MTT data (raw readout),HEK293T; [12],0.666 and 0.667 and 0.723
same,MTT data (raw readout),HEK293T; [13],0.577 and 0.585 and 0.499
same,MTT data (raw readout),HEK293T; [14],0.403 and 0.407 and 0.398
same,MTT data (raw readout),HEK293T; [15],0.057 and 0.055 and 0.049
same,IC50,HEK293T,14.7 µM
same,MTT data (raw readout),HepG2; [16],0.543 and 0.530 and 0.509
same,MTT data (raw readout),HepG2; [17],0.611 and 0.614 and 0.593
same,MTT data (raw readout),HepG2; [18],0.510 and 0.515 and 0.533
same,MTT data (raw readout),HepG2; [19],0.570 and 0.587 and 0.633
same,MTT data (raw readout),HepG2; [20],0.498 and 0.524 and 0.534
same,MTT data (raw readout),HepG2; [21],0.605 and 0.658 and 0.657
same,MTT data (raw readout),HepG2; [22],0.497 and 0.566 and 0.560
same,MTT data (raw readout),HepG2; [23],0.617 and 0.653 and 0.661
same,MTT data (raw readout),HepG2; [24],0.544 and 0.508 and 0.538
same,MTT data (raw readout),HepG2; [25],0.697 and 0.634 and 0.669
same,MTT data (raw readout),HepG2; [26],0.597 and 0.586 and 0.658
same,MTT data (raw readout),HepG2; [27],0.663 and 0.721 and 0.746
same,MTT data (raw readout),HepG2; [28],0.547 and 0.517 and 0.544
same,MTT data (raw readout),HepG2; [29],0.629 and 0.671 and 0.616
same,IC50,HepG2,38 µM
same,MIC,E. coli W3110,6.25 µM
